From PubChem BioAssay (NCI) come the findings set out here.

Common to all, as to test: NCI tumour cell line growth inhibition, 48 h
The subject of assay [1] is NCI-H460 lung.
In assay [2] the test system is RPMI-8226 leukemia.
For assay [3], the system named is IGROV1 ovarian.
The test system of assay [4] is HCT-15 colon.
Assay [5] deals with SK-OV-3 ovarian.
The subject of assay [6] is SK-MEL-5 melanoma.
The subject of assay [7] is HS 578T breast.
Assay [8] has as its system A549 NSCLC.

Values joined by “and” are separate entries in the source; they are usually repeats but may differ in a detail not shown here. Equal values may be shown once.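 96-well plates; 48 h exposure; 5 concentrations. Endpoints by linear interpolation between flanking doses. Not reached: highest tested concentration assigned. The concentration for 50% growth inhibition is given as GI50. TGI is the concentration that stops growth completely.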 Some results are limits rather than exact numbers.

Take `CC(C)(C)c1cc(NC(=O)Nc2ccc(-c3cn4c(n3)sc3cc(OCCN5CCOCC5)ccc34)cc2)no1`: the GI50 in assay [1] was 3.72 µM and 0.657 µM and 4.56 µM; in assay [2] it was 0.363 µM and 0.16 µM and 0.34 µM; in assay [3], 9.38 µM and 2.33 µM and > 10 µM; in assay [5], 7.33 µM and 5.07 µM and > 10 µM; in assay [6] it was 3.81 µM and 0.985 µM and 1.97 µM; in assay [7], 1.35 µM and 0.328 µM and 1.75 µM. Also, the GI50 in assay [8] is 3.93 µM and 1.48 µM and 6.89 µM. Also, the TGI in assay [1] is 16.1 µM and 10.4 µM and > 10 µM; in assay [3], 25.7 µM and 15.7 µM and > 10 µM; in assay [4], > 91.9 µM and 14.8 µM and > 10 µM; in assay [5] it was 22.4 µM and 19.2 µM and > 10 µM; in assay [6], 18.2 µM and 3.31 µM and > 10 µM; in assay [7], 25.3 µM and 2.92 µM and > 10 µM. The TGI in assay [8] was 19.5 µM and 13.8 µM and > 10 µM.

In the case of `CC(C)(c1ccccc1)c1cc(O)c(C(C)(C)c2ccccc2)cc1O`, the GI50 was 2.23 µM in assay [1]; 1.37 µM in assay [2]; 2.7 µM in assay [3]; 2.35 µM in assay [4]; 3.55 µM in assay [5]; 1.02 µM in assay [6]. In addition, the GI50 in assay [7] was 3.19 µM; in assay [8], 2.77 µM. Besides, the TGI in assay [1] was 7.53 µM; in assay [2], 14.3 µM; in assay [3], 13.3 µM; in assay [4], 10.1 µM; in assay [5], 14.5 µM; in assay [6] it was 2.65 µM. In addition, the TGI in assay [7] is 19.6 µM; in assay [8] it was 13.4 µM.

`CC(C)(C)c1cc(/C=N/NC(=O)c2ccccc2NC(=O)c2cccs2)c(O)c(C(C)(C)C)c1`: the GI50 in assay [1] is 0.331 µM; in assay [2], 1.05 µM; in assay [3] it was 0.683 µM; in assay [4] it was 0.22 µM; in assay [5], 1.29 µM; in assay [6] it was 0.7 µM. In addition, the GI50 is 5.13 µM in assay [7] and 0.796 µM in assay [8]. For the same compound, the TGI was 1.98 µM in assay [1]; 14 µM in assay [2]; > 100 µM in assay [3]; > 100 µM in assay [4]; > 100 µM in assay [5]; > 100 µM in assay [6]. For the same compound, the TGI in assay [7] came out at 42.6 µM; in assay [8], 17.9 µM.

For the compound `COC(=O)c1cc2oc(/C=C3/SC(=S)N(N)C3=O)cc2n1Cc1ccccc1`, the GI50 was 3.02 µM in assay [1]; > 27.5 µM in assay [2]; 1.35 µM in assay [3]; 7.65 µM in assay [4]; 4.25 µM in assay [5]; 1.99 µM in assay [6]. Besides, the GI50 was 0.699 µM in assay [7] and 5.12 µM in assay [8]. Besides, the TGI in assay [1] is 11.6 µM; in assay [2], > 100 µM; in assay [3] it was 4.82 µM; in assay [4], > 29.9 µM; in assay [5], 20 µM; in assay [6], 7.03 µM. For the same compound, the TGI in assay [7] was 3.5 µM; in assay [8], 33.1 µM.

Regarding `COc1cc(N2C(=O)[C@H](c3ccccc3)C2c2ccc(SC)cc2)cc(OC)c1OC` (stereo not given in full), the GI50 in assay [1] was 0.0346 µM; in assay [2] it was 0.0416 µM; in assay [3], 0.0432 µM; in assay [4], 0.034 µM; in assay [5] it was 0.0676 µM; in assay [6], 0.0266 µM. Besides, the GI50 in assay [7] was 0.0653 µM; in assay [8], 0.0374 µM. In addition, the TGI is > 100 µM in assay [1]; 7.68 µM in assay [2]; > 100 µM in assay [3]; > 100 µM in assay [4]; > 100 µM in assay [5]; 0.0821 µM in assay [6]. Also, the TGI in assay [7] and in assay [8] was > 100 µM each time.

Take `NC(=S)N/N=C1\c2ccccc2-c2c(F)c(F)c(F)c(F)c21`: the GI50 in assay [1] is 5.65 µM; in assay [2], 3.92 µM; in assay [3], 5.81 µM; in assay [4], 2.05 µM; in assay [5], 14.1 µM; in assay [6] it was 17.1 µM. The GI50 in assay [7] is 6.25 µM; in assay [8], 16.7 µM. Further, the TGI in assay [1] is 24.7 µM; in assay [2], > 55.9 µM; in assay [3] it was 13.8 µM; in assay [4], 4.61 µM; in assay [5], 36.5 µM; in assay [6] it was > 50.4 µM. The values for the TGI in assay [7] and in assay [8] were 39.5 µM and > 58.4 µM, respectively.

Turning to `N#CC(C#N)=C1CCOc2ccc(F)cc21`, the GI50 in assay [1] is 14.2 µM; in assay [2], 17.4 µM; in assay [3], 17.4 µM; in assay [4] it was 15.5 µM; in assay [5], 16.3 µM; in assay [6] it was 33.2 µM. The figures for the GI50 in assay [7] and in assay [8] were 0.289 µM and 26 µM, respectively. Further, the TGI is 30.4 µM in assay [1]; 38.4 µM in assay [2]; 57 µM in assay [3]; 30.3 µM in assay [4]; 30.7 µM in assay [5]; > 100 µM in assay [6]. For the same compound, the TGI in assay [7] was 41.6 µM; in assay [8], > 100 µM.
